The results in this text go back to patent publication US8541572B2.

SMILES strings stand for the structures.

The first experiment has as its system TNF-α production in LPS-stimulated human whole blood. Put plainly: Inhibition of TNF-α production from human whole blood (hWBA). In kind it is cell-based. The conditions noted are these: Homo sapiens, IC50 for inhibition of TNF-α production, LPS-stimulated human whole blood; read-out: hWBA.
Take `COc1ccc2c(c1F)C(=O)N(C[C@@]1(C#Cc3ccc(-c4nc(-c5cccnc5)ccc4O)cc3)NC(=O)NC1=O)C2` [Compound 1001]: the IC50 came out at 106 nM.
As to `COc1ccc2c(c1F)C(=O)N(C[C@@]1(C#Cc3ccc(-c4nc(-c5cccnc5)ccc4O)c(F)c3)NC(=O)NC1=O)C2` [Compound 1002], the IC50 stood at 119 nM.
As to `COc1ccc2c(c1)C(=O)N(C[C@@]1(C#Cc3ccc(-c4cnccc4OC)nc3)NC(=O)NC1=O)C2` [Compound 1105], the IC50 is 5380 nM.
As for `COc1ccc2c(c1)C(=O)N(C[C@@]1(C#Cc3ccc(-n4cnc(CCNC(C)=O)c4)nc3)NC(=O)NC1=O)C2` [Compound 1130], the IC50 was 524 nM.
Same read-out and setting: the value for `COc1ccc2c(c1)C(=O)N(C[C@@]1(C#Cc3ccc(C4=NCCN4)c(C)c3)NC(=O)NC1=O)C2` [Compound 1140] was 504 nM; that for `COc1ccc2c(c1)C(=O)N(C[C@@]1(C#Cc3ccc(-n4ccnc4)cc3)NC(=O)NC1=O)C2` [Compound 1160] was 786 nM; that for `COc1ccc2c(c1)C(=O)N(C[C@@]1(C#Cc3ccc(-n4cncn4)cc3)NC(=O)NC1=O)C2` [Compound 1170] was 1140 nM.
With `COc1ccc2c(c1)C(=O)N(C[C@@]1(C#Cc3ccc(-c4ccc(F)cc4O)nc3)NC(=O)NC1=O)C2` [Compound 1316], the IC50 was 9460 nM.
On the same count and under the same terms, the figure for `COc1ccc2c(c1)C(=O)N(CC1(C#Cc3cccc4c3CCC43NC(=O)NC3=O)NC(=O)NC1=O)C2` (stereo not drawn) [Compound 1318] is over 1000 nM; for `COc1ccc2c(c1)C(=O)N(C[C@@]1(C#Cc3nc(-c4cccc(C#N)c4)ccc3OC)NC(=O)NC1=O)C2` [Compound 1501] it is 1e+06 nM; for `COc1ccc(N2CCC2=O)nc1C#C[C@]1(CN2Cc3ccc(OC)c(F)c3C2=O)NC(=O)NC1=O` [Compound 1508] it is 1170 nM.
Same read-out and setting: the value for `COc1ccc2c(c1)C(=O)N(C[C@@]1(C#Cc3ccc(N4CCCCC4)nc3)NC(=O)NC1=O)C2` [Compound 1509] was 514 nM; that for `COc1ccc2c(c1F)C(=O)N(C[C@@]1(C#Cc3ccc(C(CN)N4CCC(NC(=O)OC(C)(C)C)C4)cc3)NC(=O)NC1=O)C2` (stereo partly drawn) [Compound 1702] was 303 nM.

Still in this experiment, the particulars now being: Homo sapiens, read-out: hWBA (nM).
Take `COc1ccc2c(c1F)C(=O)N(C[C@@]1(C#Cc3ccc(C4(C#N)CCN(C)CC4)cc3)NC(=O)NC1=O)C2` [Compound 1313]: the IC50 worked out at 669 nM.

The experiment is the same for the next values; noted with them: IC50 for inhibition of TNF-α production, LPS-stimulated human whole blood.
Turning to `COc1ccc2c(c1)C(=O)N(C[C@@]1(C#Cc3ccc(-c4cccc(Cl)c4O)nc3)NC(=O)NC1=O)C2` [Compound 1315], the “hWBA (nM)” value is recorded as “Inactive”.

The experiment is the same for the next values; noted with them: IC50 for inhibition of TNF-α production, LPS-stimulated human whole blood; read-out: hWBA.
Consider `COc1ccc2c(c1F)C(=O)N(C[C@@]1(C#Cc3ccc(-c4nc(N5CCC(=O)CC5)ccc4O)cc3)NC(=O)NC1=O)C2` [Compound 1003], for which the IC50 came out at 124 nM.
As for `COc1ccc2c(c1F)C(=O)N(C[C@@]1(C#Cc3ccc(-c4nc(-c5cnn(C)c5)ccc4OC(=O)C(C)(C)C)c(F)c3)NC(=O)NC1=O)C2` [Compound 1006], the IC50 came out at 68.5 nM.
Consider `COc1ccc2c(c1)C(=O)N(C[C@@]1(C#Cc3ccc(-c4ncccc4OC(=O)C(C)(C)C)cc3)NC(=O)NC1=O)C2` [Compound 1008], for which the IC50 was 342 nM.
`COc1ccc2c(c1F)C(=O)N(C[C@@]1(C#Cc3ccc(-c4ncccc4O)cc3)NC(=O)NC1=O)C2` [Compound 1010]: the IC50 came out at 96 nM.
Still for that read-out and setting: the figure for `COc1ccc2c(c1)C(=O)N(C[C@@]1(C#Cc3ccc(-c4cnccc4C)nc3)NC(=O)NC1=O)C2` [Compound 1100] is 2390 nM; for `COc1ccc2c(c1)C(=O)N(C[C@@]1(C#Cc3ccc(C4(CNS(C)(=O)=O)NC(=O)NC4=O)cc3)NC(=O)NC1=O)C2` (stereo partly drawn) [Compound 1110] it is 176 nM.
In the case of `COc1ccc2c(c1)C(=O)N(C[C@@]1(C#Cc3ccc(-n4cnc(CCNC(C)=O)c4)cc3)NC(=O)NC1=O)C2` [Compound 1120], the IC50 worked out at 453 nM.
Consider `COc1ccc2c(c1)C(=O)N(C[C@@]1(C#Cc3ccc(N4CCNC4=O)cc3)NC(=O)NC1=O)C2` [Compound 1150], for which the IC50 is 1620 nM.
With `COc1ccc2c(c1)C(=O)N(C[C@@]1(C#Cc3ccc(-c4cccc(C)c4O)nc3)NC(=O)NC1=O)C2` [Compound 1300], the IC50 amounted to 3500 nM.
Turning to `COc1ccc2c(c1)C(=O)N(C[C@@]1(C#Cc3ccc(-c4ccc(C)nc4O)nc3)NC(=O)NC1=O)C2` [Compound 1301], the IC50 worked out at 766 nM.
As to `COc1ccc2c(c1)C(=O)N(C[C@@]1(C#Cc3ccc(-c4c(C)n[nH]c4N)cc3)NC(=O)NC1=O)C2` [Compound 1303], the IC50 turned out to be 488 nM.
In the case of `COc1ccc2c(c1F)C(=O)N(C[C@@]1(C#Cc3ccc4c(c3)C3(CC4)NC(=O)NC3=O)NC(=O)NC1=O)C2` (stereo partly drawn) [Compound 1304], the IC50 was found to be 367 nM.
On the same count and under the same terms, the value for `COc1ccc2c(c1)C(=O)N(C[C@@]1(C#Cc3ccc(Nc4c(NCCN5CCOCC5)c(=O)c4=O)cc3)NC(=O)NC1=O)C2` [Compound 1306] was 169 nM; that for `COc1ccc2c(c1)C(=O)N(C[C@@]1(C#Cc3ccc(Nc4c(NCCN(C)C)c(=O)c4=O)cc3)NC(=O)NC1=O)C2` [Compound 1307] was 161 nM.
Take `COc1ccc2c(c1)C(=O)N(C[C@@]1(C#Cc3ccc(Nc4c(N)c(=O)c4=O)cc3)NC(=O)NC1=O)C2` [Compound 1308]: the IC50 came to 306 nM.
Regarding `COc1ccc2c(c1F)C(=O)N(C[C@@]1(C#Cc3ccc(/C(=N/O)N4CCNC[C@@H]4C)c(F)c3)NC(=O)NC1=O)C2` [Compound 1309], the IC50 was determined as 42 nM.
Turning to `CCN1CCN(/C(=N\O)c2ccc(C#C[C@]3(CN4Cc5ccc(OC)c(F)c5C4=O)NC(=O)NC3=O)cc2F)[C@@H](C)C1` [Compound 1311], the IC50 is 69 nM.
Take `COc1ccc2c(c1F)C(=O)N(C[C@@]1(C#Cc3cc(F)cnc3Cl)NC(=O)NC1=O)C2` [Compound 1312]: the IC50 worked out at 935 nM.
`COc1ccc2c(c1F)C(=O)N(C[C@@]1(C#Cc3ccc(N4C(=O)NC5(CC5)C4=O)c(F)c3)NC(=O)NC1=O)C2` [Compound 1317]: the IC50 was 148 nM.
On to `CCN1CCN(C(=O)C2CC(=O)N(c3ccc(C#C[C@]4(CN5Cc6ccc(OC)cc6C5=O)NC(=O)NC4=O)cc3)C2)CC1` (stereo partly drawn) [Compound 1319], for which the IC50 was found to be 940 nM.
The same measure, in the same setting: the value for `COc1ccc2c(c1)C(=O)N(C[C@@]1(C#Cc3nc(N4CC[C@H](O)C4=O)ccc3OC)NC(=O)NC1=O)C2` [Compound 1504] was 3590 nM; that for `COc1ccc2c(c1)C(=O)N(C[C@@]1(C#Cc3nc(N4C(=O)CCC4C)ccc3OC)NC(=O)NC1=O)C2` (stereo partly drawn) [Compound 1506] was 9540 nM; that for `COCCN1CCN(c2ccc(OC)c(C#C[C@]3(CN4Cc5ccc(OC)cc5C4=O)NC(=O)NC3=O)n2)CC1` [Compound 1507] was 5710 nM.
Turning to `COc1ccc2c(c1)C(=O)N(C[C@@]1(C#Cc3nc(-c4cnc(N(C)C)nc4)ccc3OC)NC(=O)NC1=O)C2` [Compound 1510], the IC50 worked out at 10000 nM.
As for `COc1ccc2c(c1)C(=O)N(C[C@@]1(C#Cc3nc(-c4ccc(N5CCNCC5)nc4)ccc3OC)NC(=O)NC1=O)C2` [Compound 1511], the IC50 worked out at 2050 nM.
In the case of `COc1ccc2c(c1)C(=O)N(C[C@@]1(C#Cc3nc(-c4ccc(S(=O)(=O)NC5CC5)cc4)ccc3OC)NC(=O)NC1=O)C2` [Compound 1512], the IC50 amounted to 7040 nM.
On to `COc1ccc2c(c1)C(=O)N(C[C@@]1(C#Cc3ccc(C(CN)N4CCC(NC(=O)OC(C)(C)C)C4)cc3)NC(=O)NC1=O)C2` (stereo partly drawn) [Compound 1703], for which the IC50 stood at 316 nM.
